The values below come from patent US20090239917A1, “Heterocyclic Cycloalkyl Compounds, a Process for their Preparation and Pharmaceutical Compositions Containing Them” (Les Laboratoires Servier, priority 2006, published 2009).

The experiment relates to ob/ob mouse. Put plainly: Antidiabetic and hypolipaemic effect in the ob/ob mouse. The class given is in vivo. The source says: Mutations in laboratory animals and also different sensitivities to dietary regimens have allowed the development of animal models having non-insulin-dependent diabetes and hyperlipidaemia associated with obesity and with resistance to insulin. Genetic mice models (ob/ob) (Diabetes, 1982, 31 (1), 1-6) and Zucker (fa/fa) rats have been developed by various laboratories in order to understand the physiopathology of those diseases and test the effectiveness of new antidiabetic compounds (Diabetes, 1983, 32, 830-838).
The 10-week-old male ob/ob mouse (Harlan) is used for the in vivo tests. The animals are kept in a light-darkness cycle of 12 hours at 25° C. This mouse has a basal hyperglycaemia of 2 g/l. The animals are randomly selected with regard to their glycaemia to form groups of eight. […] The control group receives the solvents under the same conditions as the treated groups. The activity of the products is evaluated by measuring glycaemia, insulinaemia and triglyceridaemia 24 hours after the final administration and by measuring body weight daily.

Setting [1] is: 3 mg/kg oral, once per day for four days, 24 hours after final administration.

Turning to `O=C(c1ccc2c(c1)sc(=O)n2CCOc1ccc(CC(OCC(F)(F)F)C(=O)O)cc1)C1CC1` (stereo not shown) [Example 2, 3-{4-[2-(6-(Cyclopropylcarbonyl)-2-oxo-1,3-benzothiazol-3(2H)-yl)-ethoxy]phenyl}-2-(2,2,2-trifluoroethoxy)propanoic acid], under setting [1], the “reduction of glycaemia vs control mice” value came to 42%, the “reduction of insulinaemia vs control mice” value was determined as 71% and the “reduction of triglyceridaemia vs control mice” value was 45%.
As for `O=C(c1ccc2c(c1)sc(=O)n2CCOc1ccc(C[C@H](OCC(F)(F)F)C(=O)[O-])cc1)C1CC1.[Na+]` [Example 9, Sodium (S)-3-{4-[2-(6-(cyclopropylcarbonyl)-2-oxo-1,3-benzothiazol-3(2H)-yl)ethoxy]phenyl}-2-(2,2,2-trifluoroethoxy)propanoate], under “1 mg/kg”, the reduction in glycaemia was determined as 39%, the reduction in insulinaemia came to 41%, the “reduction in the weight gain observed in the ob/ob control mice” value came out at 14% and the reduction in triglyceridaemia came to 52%.
